Assay results reported in PubChem BioAssay AID248 (DTP/NCI, 2004).
“And” between values parts separate entries of the source, which are not always exact repeats. Identical values can stand only once. Inconclusive results and toxic doses are left out. No stated cut-off is given here; in the data, active means T/C of 150% or more; inactive means T/C below 125%.

Tested on: L1210 leukemia ip in BDF1 mice, survival T/C
Assay: NCI In Vivo Anticancer Drug Screen. Data for tumor model L1210 Leukemia (intraperitoneal) in B6D2F1 (BDF1) mice
Conditions: endpoint: mean survival time, higher = longer survival
In short: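 Tumor was transplanted into mice, which were then dosed with test compound or vehicle alone. Survival was recorded for each group, and the treated figure was expressed relative to the control figure.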

[1] = dose: 100.0 mg/kg/injection, schedule: Q01DX009 (ip), vehicle: Klucel (hydroxypropylcellulose) (HPC)
[2] = dose: 200.0 mg/kg/injection, schedule: Q01DX009 (ip), vehicle: Klucel (hydroxypropylcellulose) (HPC)
[3] = dose: 400.0 mg/kg/injection, schedule: Q01DX009 (ip), vehicle: Klucel (hydroxypropylcellulose) (HPC)
[4] = dose: 100.0 mg/kg/injection, schedule: Q01DX001 (ip), vehicle: Klucel (hydroxypropylcellulose) (HPC)
[5] = dose: 100.0 mg/kg/injection, schedule: Q04DX003 (ip), vehicle: Klucel (hydroxypropylcellulose) (HPC)
[6] = dose: 200.0 mg/kg/injection, schedule: Q01DX001 (ip), vehicle: Klucel (hydroxypropylcellulose) (HPC)
[7] = dose: 200.0 mg/kg/injection, schedule: Q04DX003 (ip), vehicle: Klucel (hydroxypropylcellulose) (HPC)
[8] = dose: 400.0 mg/kg/injection, schedule: Q01DX001 (ip), vehicle: Klucel (hydroxypropylcellulose) (HPC)
[9] = dose: 400.0 mg/kg/injection, schedule: Q04DX003 (ip), vehicle: Klucel (hydroxypropylcellulose) (HPC)
[10] = dose: 100.0 mg/kg/injection, schedule: Q01DX001 (ip), vehicle: saline
[11] = dose: 200.0 mg/kg/injection, schedule: Q01DX001 (ip), vehicle: saline
[12] = dose: 400.0 mg/kg/injection, schedule: Q01DX001 (ip), vehicle: saline
[13] = dose: 100.0 mg/kg/injection, schedule: Q01DX009 (ip), vehicle: saline with Tween-80
[14] = dose: 200.0 mg/kg/injection, schedule: Q01DX009 (ip), vehicle: saline with Tween-80
[15] = dose: 400.0 mg/kg/injection, schedule: Q01DX009 (ip), vehicle: saline with Tween-80
[16] = dose: 50.0 mg/kg/injection, schedule: Q04DX002 (ip), vehicle: saline
[17] = dose: 100.0 mg/kg/injection, schedule: Q04DX002 (ip), vehicle: Klucel (hydroxypropylcellulose) (HPC)
[18] = dose: 200.0 mg/kg/injection, schedule: Q04DX002 (ip), vehicle: Klucel (hydroxypropylcellulose) (HPC)
[19] = dose: 400.0 mg/kg/injection, schedule: Q04DX002 (ip), vehicle: Klucel (hydroxypropylcellulose) (HPC)

Measured: T/C

CC(=O)c1cccc(NC(=O)OC2CCCC(C)C2)c1 (stereo not drawn)
inactive: [1] 93 % of control | [2] 101 % of control | [3] 97 % of control

COc1ccc(C(O)C(C)C(O)(C(F)(F)F)C(F)(F)F)cc1 (stereo not drawn)
inactive: [4] 98 % of control | [5] 96 % of control | [6] 101 % of control | [7] 98 % of control | [8] 111 % of control | [9] 93 % of control

COc1ccc2nc3cc(Cl)ccc3c(Nc3ccc(O)c(CNCCO)c3)c2c1
inactive: dose: 75.0 mg/kg/injection, schedule: Q01DX001 (ip), vehicle: carboxymethylcellulose (CMC) 101 % of control

COc1ccc(/C=C2\CCC3C(=O)CCCC3(C)C2=O)cc1 (stereo not drawn)
inactive: dose: 100.0 mg/kg/injection, schedule: Q01DX009 (ip), vehicle: saline 95 % of control | dose: 100.0 mg/kg/injection, schedule: Q04DX003 (ip), vehicle: saline 100 % of control | dose: 200.0 mg/kg/injection, schedule: Q01DX009 (ip), vehicle: saline 104 % of control | dose: 200.0 mg/kg/injection, schedule: Q04DX003 (ip), vehicle: saline 117 % of control | dose: 400.0 mg/kg/injection, schedule: Q01DX009 (ip), vehicle: saline 101 % of control | dose: 400.0 mg/kg/injection, schedule: Q04DX003 (ip), vehicle: saline 104 % of control

[N-]=[N+]=Nc1ccc(S(=O)(=O)Nc2ncccn2)cc1
inactive: dose: 100.0 mg/kg/injection, schedule: Q01DX001 (ip), vehicle: carboxymethylcellulose (CMC) 113 % of control | dose: 100.0 mg/kg/injection, schedule: Q01DX009 (ip), vehicle: carboxymethylcellulose (CMC) 93 % of control | dose: 100.0 mg/kg/injection, schedule: Q04DX002 (ip), vehicle: carboxymethylcellulose (CMC) 100 % of control and 108 % of control | dose: 100.0 mg/kg/injection, schedule: Q04DX003 (ip), vehicle: carboxymethylcellulose (CMC) 104 % of control | dose: 200.0 mg/kg/injection, schedule: Q01DX001 (ip), vehicle: carboxymethylcellulose (CMC) 108 % of control | dose: 200.0 mg/kg/injection, schedule: Q01DX009 (ip), vehicle: carboxymethylcellulose (CMC) 88 % of control | dose: 200.0 mg/kg/injection, schedule: Q04DX002 (ip), vehicle: carboxymethylcellulose (CMC) 102 % of control and 103 % of control | dose: 200.0 mg/kg/injection, schedule: Q04DX003 (ip), vehicle: carboxymethylcellulose (CMC) 96 % of control | dose: 400.0 mg/kg/injection, schedule: Q01DX001 (ip), vehicle: carboxymethylcellulose (CMC) 90 % of control | dose: 400.0 mg/kg/injection, schedule: Q01DX009 (ip), vehicle: carboxymethylcellulose (CMC) 98 % of control | dose: 400.0 mg/kg/injection, schedule: Q04DX002 (ip), vehicle: carboxymethylcellulose (CMC) 103 % of control and 107 % of control | dose: 400.0 mg/kg/injection, schedule: Q04DX003 (ip), vehicle: carboxymethylcellulose (CMC) 110 % of control

CC(C)C1=CC23CCC4C(C)(C(=O)O)CCCC4(C)C2CC1C1C(=O)N(CCCN(C)C)C(=O)C13 (stereo not drawn)
inactive: dose: 75.0 mg/kg/injection, schedule: Q01DX001 (ip), vehicle: other 96 % of control | dose: 150.0 mg/kg/injection, schedule: Q01DX001 (ip), vehicle: other 94 % of control

COc1ccc(C(C#N)N2CCCCC2)cc1 (stereo not drawn)
inactive: dose: 25.0 mg/kg/injection, schedule: Q01DX009 (ip), vehicle: Klucel (hydroxypropylcellulose) (HPC) 102 % of control | dose: 50.0 mg/kg/injection, schedule: Q01DX009 (ip), vehicle: Klucel (hydroxypropylcellulose) (HPC) 101 % of control | [5] 95 % of control | [7] 111 % of control | [9] 101 % of control

CCOC1C=CC(O)C(CO)O1 (stereo not drawn)
inactive: [10] 101 % of control | [11] 98 % of control | [12] 95 % of control

Cc1ccc(CNc2ccc(C)cc2)cc1
inactive: [1] 100 % of control | [5] 98 % of control | [2] 106 % of control | [7] 100 % of control | [3] 99 % of control | [9] 95 % of control

CNS(=O)(=O)c1ccc(NC(=O)C(Cl)(Cl)Cl)cc1
inactive: dose: 100.0 mg/kg/injection, schedule: Q01DX001 (ip), vehicle: other 105 % of control | [1] 102 % of control | dose: 100.0 mg/kg/injection, schedule: Q04DX003 (ip), vehicle: other 101 % of control | dose: 200.0 mg/kg/injection, schedule: Q01DX001 (ip), vehicle: other 104 % of control | [2] 95 % of control | dose: 200.0 mg/kg/injection, schedule: Q04DX003 (ip), vehicle: other 101 % of control | dose: 400.0 mg/kg/injection, schedule: Q01DX001 (ip), vehicle: other 104 % of control | [3] 96 % of control | dose: 400.0 mg/kg/injection, schedule: Q04DX003 (ip), vehicle: other 98 % of control

CN(C)C(=S)SCN1CCCCC1
inactive: [1] 103 % of control | [5] 96 % of control | [2] 97 % of control | [7] 104 % of control | [9] 107 % of control

O=S(=O)(Nc1ccc(NS(=O)(=O)c2ccccc2)c2ccccc12)c1ccccc1
inactive: [13] 87 % of control | [14] 92 % of control | [15] 92 % of control

CC(c1ccccc1)[P+](c1ccccc1)(c1ccccc1)c1ccccc1 (stereo not drawn)
inactive: dose: 12.5 mg/kg/injection, schedule: Q04DX002 (ip), vehicle: saline 106 % of control | dose: 25.0 mg/kg/injection, schedule: Q04DX002 (ip), vehicle: saline 111 % of control | [16] 97 % of control

O=C1C=CC(=O)N1CN1CCOCC1 (tested in a mixture with another compound)
inactive: dose: 6.25 mg/kg/injection, schedule: Q01DX009 (ip), vehicle: saline 92 % of control | dose: 12.5 mg/kg/injection, schedule: Q01DX009 (ip), vehicle: saline 100 % of control | [4] 103 % of control and 100 % of control | [6] 103 % of control and 100 % of control and 97 % of control | [8] 95 % of control [middle of 4 runs]

Nc1ccc(-c2ccc(N)c(Br)c2)cc1Br
inactive: [17] 99 % of control | [18] 93 % of control

Nc1cc([N+](=O)[O-])cc([N+](=O)[O-])c1Cl
inactive: [4] 93 % of control | [6] 96 % of control | [8] 101 % of control

O=C1OCC/C1=C/OCCCCO/C=C1/CCOC1=O
inactive: [17] 97 % of control | [18] 97 % of control | [19] 94 % of control

Cc1oc2ccc(NS(=O)(=O)c3ccccc3)cc2c1C(=O)O
inactive: dose: 25.0 mg/kg/injection, schedule: Q01DX009 (ip), vehicle: saline with Tween-80 101 % of control | dose: 50.0 mg/kg/injection, schedule: Q01DX009 (ip), vehicle: saline with Tween-80 107 % of control | [13] 101 % of control

CSC12OCC(O1)C1OC(C)(C)OC(C=O)C1O2 (stereo not drawn)
inactive: [16] 92 % of control | dose: 100.0 mg/kg/injection, schedule: Q04DX002 (ip), vehicle: saline 95 % of control

CC1CN(C(C)(C)C)C1
inactive: dose: 100.0 mg/kg/injection, schedule: Q04DX003 (ip), vehicle: acetone 95 % of control

O=C(Nc1ccccc1F)OCc1ccco1
inactive: [4] 99 % of control | [1] 95 % of control and 102 % of control | [17] 102 % of control and 106 % of control | [6] 99 % of control | [2] 95 % of control and 91 % of control | [18] 106 % of control and 118 % of control | [8] 94 % of control | [3] 98 % of control and 102 % of control | [19] 96 % of control and 104 % of control

O=C(Nc1cccc(F)c1)N(C1CCCCC1)C1CCCCC1
inactive: dose: 6.25 mg/kg/injection, schedule: Q01DX009 (ip), vehicle: gum acacia 96 % of control | dose: 12.5 mg/kg/injection, schedule: Q01DX009 (ip), vehicle: gum acacia 100 % of control | dose: 50.0 mg/kg/injection, schedule: Q01DX009 (ip), vehicle: gum acacia 89 % of control | dose: 400.0 mg/kg/injection, schedule: Q01DX009 (ip), vehicle: gum acacia 91 % of control

O=C1NC(=O)c2ccc(S)c3cccc1c23
inactive: [13] 94 % of control | [14] 90 % of control | [15] 97 % of control

O=C(COc1ccc([N+](=O)[O-])cc1Cl)N1CCOCC1
inactive: [1] 103 % of control | [5] 98 % of control | [2] 97 % of control | [7] 103 % of control | [3] 101 % of control | [9] 95 % of control

O=c1cc(O)cc(Cl)[nH]1
inactive: [10] 96 % of control | [11] 91 % of control | [12] 96 % of control
